Source: PMC4774911, “Biochemical Screening of Five Protein Kinases from Plasmodium falciparum against 14,000 Cell-Active Compounds” (PLoS ONE, 2016)
Where “and” joins values, the source holds several entries; their conditions need not be identical. Identical values can stand only once.

Experiments:
BMPR2 = target: T1, BMPR2 (Homo sapiens, UniProt Q13873); test: biochemical; parameters: endogenous in cells; host or cells: K562 cell extract; species or system K562 (extract); replicate k of n = 2 (each experiment ID is one independent experiment; two experiment IDs per compound); conditions: read-out: KDapp
T1 sequence (Q13873 1-1038): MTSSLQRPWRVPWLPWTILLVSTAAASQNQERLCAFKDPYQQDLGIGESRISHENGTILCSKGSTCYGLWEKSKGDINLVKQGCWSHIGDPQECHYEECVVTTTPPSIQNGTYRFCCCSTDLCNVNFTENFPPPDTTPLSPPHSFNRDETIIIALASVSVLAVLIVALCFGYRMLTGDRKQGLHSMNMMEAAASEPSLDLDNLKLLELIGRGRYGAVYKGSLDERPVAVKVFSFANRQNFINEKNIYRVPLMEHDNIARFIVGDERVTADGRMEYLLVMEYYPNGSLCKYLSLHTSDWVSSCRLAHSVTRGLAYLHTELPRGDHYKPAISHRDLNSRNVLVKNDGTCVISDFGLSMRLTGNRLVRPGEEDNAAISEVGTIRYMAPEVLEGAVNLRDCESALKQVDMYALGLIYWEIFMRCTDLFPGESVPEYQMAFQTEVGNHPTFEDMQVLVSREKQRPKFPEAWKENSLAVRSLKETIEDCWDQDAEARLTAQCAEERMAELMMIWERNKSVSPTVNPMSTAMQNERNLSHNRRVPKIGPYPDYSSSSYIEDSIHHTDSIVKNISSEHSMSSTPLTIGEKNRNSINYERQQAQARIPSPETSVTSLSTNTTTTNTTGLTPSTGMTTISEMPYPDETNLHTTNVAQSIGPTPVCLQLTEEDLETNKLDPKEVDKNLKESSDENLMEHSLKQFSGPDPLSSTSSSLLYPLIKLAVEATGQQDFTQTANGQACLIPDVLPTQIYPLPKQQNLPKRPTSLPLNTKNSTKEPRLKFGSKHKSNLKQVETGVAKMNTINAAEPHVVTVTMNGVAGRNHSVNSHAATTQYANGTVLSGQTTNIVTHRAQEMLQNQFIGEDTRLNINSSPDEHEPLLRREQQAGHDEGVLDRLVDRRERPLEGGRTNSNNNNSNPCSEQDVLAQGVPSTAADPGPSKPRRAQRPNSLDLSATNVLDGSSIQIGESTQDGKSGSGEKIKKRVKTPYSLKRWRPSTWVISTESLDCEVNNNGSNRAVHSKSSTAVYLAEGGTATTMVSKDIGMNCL

AXL = target: T2, AXL (Homo sapiens, UniProt P30530); test: biochemical; parameters: endogenous in cells; host or cells: K562 cell extract; species or system K562 (extract); replicate k of n = 2 (each experiment ID is one independent experiment; two experiment IDs per compound); conditions: read-out: KDapp
T2 sequence (P30530 1-894): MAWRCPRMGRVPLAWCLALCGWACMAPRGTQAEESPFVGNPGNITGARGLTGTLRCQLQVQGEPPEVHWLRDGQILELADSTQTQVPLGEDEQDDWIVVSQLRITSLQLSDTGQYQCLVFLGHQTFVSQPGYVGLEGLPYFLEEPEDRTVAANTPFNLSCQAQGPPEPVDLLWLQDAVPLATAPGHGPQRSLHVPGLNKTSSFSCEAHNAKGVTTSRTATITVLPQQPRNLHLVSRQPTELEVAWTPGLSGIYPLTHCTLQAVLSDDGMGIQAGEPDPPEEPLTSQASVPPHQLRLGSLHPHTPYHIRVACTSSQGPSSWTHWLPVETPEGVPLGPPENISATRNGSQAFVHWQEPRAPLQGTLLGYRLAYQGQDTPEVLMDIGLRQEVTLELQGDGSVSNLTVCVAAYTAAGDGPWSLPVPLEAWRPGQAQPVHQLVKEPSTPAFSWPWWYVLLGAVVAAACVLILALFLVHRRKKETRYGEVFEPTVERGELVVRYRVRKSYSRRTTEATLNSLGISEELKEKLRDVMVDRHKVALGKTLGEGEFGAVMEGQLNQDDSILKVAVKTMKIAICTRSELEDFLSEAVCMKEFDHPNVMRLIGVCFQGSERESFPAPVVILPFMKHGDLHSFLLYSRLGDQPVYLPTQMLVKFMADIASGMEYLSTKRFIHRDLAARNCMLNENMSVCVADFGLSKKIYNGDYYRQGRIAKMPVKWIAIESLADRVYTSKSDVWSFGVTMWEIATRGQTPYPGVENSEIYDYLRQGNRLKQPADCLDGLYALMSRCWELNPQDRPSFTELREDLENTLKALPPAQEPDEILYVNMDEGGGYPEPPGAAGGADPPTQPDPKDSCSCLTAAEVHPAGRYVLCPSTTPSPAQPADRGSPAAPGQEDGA

CN1CCN(c2ccc(Nc3ncc(C#N)c(Nc4ccccc4C(N)=O)n3)cc2)CC1.Cl [TCMDC-134116] was tested, and the Kd (BMPR2) was 3.47 µM and 4.75 µM and the Kd (AXL) was 266 nM and 293 nM.
